Test [1] deals with T1, STAT6 (Homo sapiens, UniProt P42226).
T1 construct: These cells express endogenous STAT6; host or cells: HeLa LgBiT clone 4.14
T1 sequence (P42226 1-847): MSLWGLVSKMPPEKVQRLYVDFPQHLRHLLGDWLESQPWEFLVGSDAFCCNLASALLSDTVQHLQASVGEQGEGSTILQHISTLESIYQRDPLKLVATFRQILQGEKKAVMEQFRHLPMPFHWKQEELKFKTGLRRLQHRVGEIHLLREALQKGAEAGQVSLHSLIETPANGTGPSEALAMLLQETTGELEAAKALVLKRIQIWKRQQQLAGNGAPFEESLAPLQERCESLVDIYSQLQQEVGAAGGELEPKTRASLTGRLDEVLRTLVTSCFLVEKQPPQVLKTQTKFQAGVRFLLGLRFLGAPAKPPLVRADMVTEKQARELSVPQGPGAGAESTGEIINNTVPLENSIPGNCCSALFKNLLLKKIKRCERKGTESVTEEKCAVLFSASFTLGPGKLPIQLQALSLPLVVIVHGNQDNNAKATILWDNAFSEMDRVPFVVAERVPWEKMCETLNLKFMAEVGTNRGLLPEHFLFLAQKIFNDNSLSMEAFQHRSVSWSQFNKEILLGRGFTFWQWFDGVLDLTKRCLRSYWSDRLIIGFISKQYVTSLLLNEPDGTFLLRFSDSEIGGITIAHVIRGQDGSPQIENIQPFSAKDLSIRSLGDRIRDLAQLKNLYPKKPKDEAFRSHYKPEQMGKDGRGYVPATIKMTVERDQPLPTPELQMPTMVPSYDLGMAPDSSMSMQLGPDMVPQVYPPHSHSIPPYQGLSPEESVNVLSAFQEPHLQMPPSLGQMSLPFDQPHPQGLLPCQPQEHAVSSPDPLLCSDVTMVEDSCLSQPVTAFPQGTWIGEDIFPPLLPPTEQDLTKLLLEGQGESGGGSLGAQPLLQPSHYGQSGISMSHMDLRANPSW
Nature of the test: Stat6 Degrader Assay (HiBiT based, HeLa LgBiT clone 4.14). It counts as cell-based. The conditions noted are these: HeLa LgBiT clone 4.14 HiBiT-STAT6, 4-24 h incubation; values given for compounds with >80% Emax; geometric mean; read-out: STAT6 degradation DC50. The method in brief:
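Luminescence from HiBiT-STAT6 complementing stably expressed LgBiT in HeLa clone 4.14 reports remaining STAT6 protein. Cells (5000/well) exposed to compound for 4-24 h at 37° C; read 0.5 h after Nano-Glo addition. 100% degradation window set with 50 μM terfenadine; percent degradation plotted against concentration.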

Test [2] has as its system Eotaxin-3 release in human whole blood stimulated with IL-4. Kind of test: Human Whole Blood Eotaxin-3 Assay (IL-4 stimulated eotaxin-3 release). It counts as cell-based. Particulars: IL-4 stimulation, 48 h, values given for compounds with >80% Emax, geometric mean. Summed up: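 Eotaxin-3 (CCL26) release measured by MSD kit in plasma supernatant after 48 h IL-4 stimulation ([…]) of human whole blood. Compounds added in triplicate 4-fold dilutions 2 h before stimulation; 0.5% DMSO final, 37° C, 5% CO2.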

One may read the DC50 as the concentration giving 50% degradation. What is called EC50 is the midpoint of the concentration-response curve. A low value points to an effect from little substance.

As for `Cc1cc(C(=O)N2CCC(CN3CCN(Cc4ccc5c(c4)C4(CC4)C(=O)N5C4CCC(=O)NC4=O)C[C@@H]3C)CC2)cc(F)c1C1=CCN([C@@H](C)c2cc3c(-n4cc(F)c5c(c4=O)CCN5)ccnc3n2C)CC1` (stereo partly drawn) [Example 3u116, 3-(5′-(((S)-4-((1-(3-fluoro-4-(1-((S)-1-(4-(7-fluoro-4-oxo-1,2,3,4-tetrahydro-5H-pyrrolo[3,2-c]pyridin-5-yl)-1-methyl-1H-pyrrolo[2,3-b]pyridin-2-yl)ethyl)-1,2,3,6-tetrahydropyridin-4-yl)-5-methylbenzoyl)piperidin-4-yl)methyl)-3-methylpiperazin-1-yl)methyl)-2′-oxospiro[cyclopropane-1,3′-indolin]-1′-yl)piperidine-2,6-dione], the DC50 in test [1] turned out to be 8.7 nM. The midpoint of the response in test [2], the EC50, lay at 6 nM.

As to `CNc1ccn(-c2ccnc3c2cc([C@H](C)N2CC=C(c4c(C)cc(C(=O)N5CCC(CN6CCN(Cc7cc8c(cc7F)n(C7CCC(=O)NC7=O)c(=O)n8C)C[C@@H]6C)CC5)cc4F)CC2)n3C)c(=O)c1` (stereo partly drawn) [Example 3u207, 3-(6-fluoro-5-(((S)-4-((1-(3-fluoro-5-methyl-4-(1-((S)-1-(1-methyl-4-(4-(methyl-amino)-2-oxopyridin-1 (2H)-yl)-1H-pyrrolo[2,3-b]pyridin-2-yl)ethyl)-1,2,3,6-tetrahydropyridin-4-yl)-benzoyl)piperidin-4-yl)methyl)-3-methylpiperazin-1-yl)methyl)-3-methyl-2-oxo-2,3-dihydro-1H-benzo[d]imidazol-1-yl)piperidine-2,6-dione], the DC50 in test [1] was 0.3 nM. In addition, in test [2], a half-maximal effect (EC50) was put at 0.2 nM.

Consider `C[C@H]1CN(Cc2ccc3c(c2)n(C2CC2)c(=O)n3[C@@H]2CCC(=O)NC2=O)CCN1CC1CCN(C(=O)c2cc(F)c(C3CCN(Cc4cc5c(-n6ccc7c(c6=O)CCN7)ccnc5n4C)CC3)c(F)c2)CC1` (single isomer, unassigned) [Example 3u108], for which, in test [1], the half-maximal degradation concentration (DC50) was determined as 3.4 nM. The 50% effective concentration (EC50) in test [2] came to 4.1 nM.

As to `CNc1cc(=O)n(-c2ccnc3c2cc([C@H](C)N2CC=C(c4c(C)cc(C(=O)N(C)c5ccc(N6CCC(Cc7ccc8c(c7)n(C)c(=O)n8[C@H]7CCC(=O)NC7=O)CC6)nc5)cc4F)CC2)n3C)cc1F` (single isomer, unassigned) [Example 3u242], the DC50 in test [1] came to 0.2 nM. The same compound registered a 50% effective concentration (EC50) in test [2] of 0.2 nM.

As to `CNc1ccn(-c2ccnc3c2cc([C@H](C)N2CC=C(c4c(C)cc(C(=O)N5CCC(CN6CCN(Cc7cc8c(cc7F)N([C@H]7CCC(=O)NC7=O)C(=O)C87CC7)C[C@@H]6C)CC5)cc4F)CC2)n3C)c(=O)c1` (single isomer, unassigned) [Example 3u194], the DC50 in test [1] is 1.7 nM. Further, it took 0.9 nM to reach a half-maximal effect in test [2] (EC50).

As to `Cc1cc(C(=O)N2CCC(CN3CCN(Cc4cc5c(cc4F)n(C4CCC(=O)NC4=O)c(=O)n5C4CC4)CC3)CC2)cc(F)c1C1=CCN([C@@H](C)c2cc3c(-n4ccc5c(c4=O)CCN5)ccnc3n2C)CC1` (stereo partly drawn) [Example 3u146, 3-(3-cyclopropyl-6-fluoro-5-((4-((1-(3-fluoro-5-methyl-4-(1-((S)-1-(1-methyl-4-(4-oxo-1,2,3,4-tetrahydro-5H-pyrrolo[3,2-c]pyridin-5-yl)-1H-pyrrolo[2,3-b]pyridin-2-yl)ethyl)-1,2,3,6-tetrahydropyridin-4-yl)benzoyl)piperidin-4-yl)methyl)piperazin-1-yl)methyl)-2-oxo-2,3-dihydro-1H-benzo[d]imidazol-1-yl)piperidine-2,6-dione], the DC50 in test [1] was 1.7 nM. In test [2], the EC50 is 1.4 nM.

`CNc1ccn(-c2ccnc3c2cc(CN2CCC(c4c(F)cc(C(=O)N5CCC(CN6CCN(Cc7ccc8c(c7)n(C)c(=O)n8[C@@H]7CCC(=O)NC7=O)CC6)CC5)cc4F)CC2)n3C)c(=O)c1` (single isomer, unassigned) [Example 3u31]: the DC50 in test [1] came to 2.4 nM. In test [2], this compound showed an EC50 of 2 nM.

Take `CNc1ccn(-c2ccnc3c2cc([C@H](C)N2CC=C(c4c(C)cc(C(=O)N(C)c5ccc(C6CCN(Cc7ccc8c(c7)n(C)c(=O)n8[C@H]7CCC(=O)NC7=O)CC6)cc5)cc4F)CC2)n3C)c(=O)c1` (single isomer, unassigned) [Example 3u226]: in test [1], the DC50 was found to be 0.05 nM. For the same compound, the EC50 in test [2] came to 0.2 nM.

Turning to `CNc1ccn(-c2ccnc3c2cc(CN2CCC(c4c(F)cc(C(=O)N5CCC(CN6CCN(Cc7cc8c(cc7F)N(C7CCC(=O)NC7=O)C(=O)C87CC7)CC6)CC5)cc4F)CC2)n3C)c(=O)c1` (stereo not drawn) [Example 3u42, 3-(5′-((4-((1-(3,5-difluoro-4-(1-((1-methyl-4-(4-(methylamino)-2-oxopyridin-1 (2H)-yl)-1H-pyrrolo[2,3-b]pyridin-2-yl)methyl)piperidin-4-yl)benzoyl)piperidin-4-yl)methyl)piperazin-1-yl)methyl)-6′-fluoro-2′-oxospiro[cyclopropane-1,3′-indolin]-1′-yl)piperidine-2,6-dione], the DC50 in test [1] was found to be 13.2 nM. This compound registered a 50% effective concentration (EC50) in test [2] of 13.8 nM.

Regarding `Cc1cc(C(=O)N2CCC(CN3CCN(Cc4cc5c(cc4F)n([C@@H]4CCC(=O)NC4=O)c(=O)n5C)CC3)CC2)cc(F)c1C1=CCN([C@@H](C)c2cc3c(-n4ccc5c(c4=O)CCN5)ccnc3n2C)CC1` (single isomer, unassigned) [Example 3u76], the half-maximal degradation concentration (DC50) in test [1] is 3.2 nM. In test [2], this compound returned an EC50 of 1.3 nM.

Consider `CNc1ccn(-c2ccnc3c2cc([C@H](C)N2CCC(c4c(C)cc(C(=O)N5CCC(CN6CCN(Cc7ccc8c(c7)n(C7CC7)c(=O)n8[C@@H]7CCC(=O)NC7=O)C[C@@H]6C)CC5)cc4F)CC2)n3C)c(=O)c1` (single isomer, unassigned) [Example 3u199], for which, in test [1], the 50% degradation concentration (DC50) stood at 1.1 nM. The compound also registered a concentration for a half-maximal effect (EC50) in test [2] of 2.7 nM.

As for `C[C@H]1CN(Cc2ccc3c(c2)n(C)c(=O)n3C2CCC(=O)NC2=O)CCN1CC1CCN(C(=O)c2ccc(C3CCN([C@@H](C)c4cc5c(-n6ccc7c(c6=O)CCN7)ccnc5n4C)CC3)cc2)CC1` (stereo partly drawn) [Example 3e44, 3-(3-methyl-5-(((S)-3-methyl-4-((1-(4-(1-((S)-1-(1-methyl-4-(4-oxo-1,2,3,4-tetrahydro-5H-pyrrolo[3,2-c]pyridin-5-yl)-1H-pyrrolo[2,3-b]pyridin-2-yl)ethyl)piperidin-4-yl)benzoyl)piperidin-4-yl)methyl)piperazin-1-yl)methyl)-2-oxo-2,3-dihydro-1H-benzo[d]imidazol-1-yl)piperidine-2,6-dione], the DC50 in test [1] turned out to be 0.7 nM. The same compound returned a half-maximal effective concentration (EC50) in test [2] of 0.3 nM.

Consider `CNc1cc(=O)n(-c2ccnc3c2cc([C@H](C)N2CC=C(c4c(C)cc(C(=O)N5CCC(CN6CCN(c7ccc8c(c7)C(C)(C)C(=O)N8C7CCC(=O)NC7=O)CC6)CC5)cc4F)CC2)n3C)cc1F` (stereo partly drawn) [Example 3u303, 3-(5-(4-((1-(3-fluoro-4-(1-((S)-1-(4-(5-fluoro-4-(methylamino)-2-oxopyridin-1 (2H)-yl)-1-methyl-1H-pyrrolo[2,3-b]pyridin-2-yl)ethyl)-1,2,3,6-tetrahydropyridin-4-yl)-5-methylbenzoyl)piperidin-4-yl)methyl)piperazin-1-yl)-3,3-dimethyl-2-oxoindolin-1-yl)piperidine-2,6-dione], for which, in test [1], the half-maximal degradation concentration (DC50) amounted to 21.7 nM. Moreover, in test [2], the EC50 was determined as 37.1 nM.

Take `CNc1ccn(-c2ccnc3c2cc(CN2CCC(c4c(F)cc(C(=O)N5CCC(CN6CCN(Cc7ccc8c(c7)C(C)(C)C(=O)N8[C@@H]7CCC(=O)NC7=O)C[C@@H]6C)CC5)cc4F)CC2)n3C)c(=O)c1` (single isomer, unassigned) [Example 3u206]: the 50% degradation concentration (DC50) in test [1] stood at 0.4 nM. In addition, the 50% effective concentration (EC50) in test [2] worked out at 10.9 nM.

For the compound `CNc1ccn(-c2ccnc3c2cc([C@H](C)N2CC=C(c4c(C)cc(C(=O)N(C)C5CCC(N6CCN(Cc7ccc8c(c7)n(C)c(=O)n8C7CCC(=O)NC7=O)CC6)CC5)cc4F)CC2)n3C)c(=O)c1` (stereo partly drawn) [Example 3u238, N-(4-(4-((1-(2,6-dioxopiperidin-3-yl)-3-methyl-2-oxo-2,3-dihydro-1H-benzo[d]-imidazol-5-yl)methyl)piperazin-1-yl)cyclohexyl)-3-fluoro-N,5-dimethyl-4-(1-((S)-1-(1-methyl-4-(4-(methylamino)-2-oxopyridin-1 (2H)-yl)-1H-pyrrolo[2,3-b]pyridin-2-yl)ethyl)-1,2,3,6-tetrahydropyridin-4-yl)benzamide], the DC50 in test [1] is 1.4 nM. A half-maximal response in test [2] (EC50) required 3.2 nM.

(Values after patent US20250320206A1, “STAT6 DEGRADERS” (Gilead Sciences, Inc., priority 2024, published 2025).)
